In this test the target is T1, Dd myosin-II motor domain (Dictyostelium discoideum, UniProt P08799).
T1 construct: gene mhcA; His6-tagged motor domain, amino acids 1–765 fused to a C-terminal SSB tag
Put plainly: microscale thermophoresis (MST); also X-ray crystal structure with blebbistatin. Type of test: binding.

From publication PMC7582316, “Structural and Computational Insights into a Blebbistatin-Bound Myosin•ADP Complex with Characteristics of an ADP-Release Conformation along the Two-Step Myosin Power Stoke” (International Journal of Molecular Sciences, 2020) come the findings set out here.

SMILES strings stand for the structures.

T1 sequence (P08799 1-765): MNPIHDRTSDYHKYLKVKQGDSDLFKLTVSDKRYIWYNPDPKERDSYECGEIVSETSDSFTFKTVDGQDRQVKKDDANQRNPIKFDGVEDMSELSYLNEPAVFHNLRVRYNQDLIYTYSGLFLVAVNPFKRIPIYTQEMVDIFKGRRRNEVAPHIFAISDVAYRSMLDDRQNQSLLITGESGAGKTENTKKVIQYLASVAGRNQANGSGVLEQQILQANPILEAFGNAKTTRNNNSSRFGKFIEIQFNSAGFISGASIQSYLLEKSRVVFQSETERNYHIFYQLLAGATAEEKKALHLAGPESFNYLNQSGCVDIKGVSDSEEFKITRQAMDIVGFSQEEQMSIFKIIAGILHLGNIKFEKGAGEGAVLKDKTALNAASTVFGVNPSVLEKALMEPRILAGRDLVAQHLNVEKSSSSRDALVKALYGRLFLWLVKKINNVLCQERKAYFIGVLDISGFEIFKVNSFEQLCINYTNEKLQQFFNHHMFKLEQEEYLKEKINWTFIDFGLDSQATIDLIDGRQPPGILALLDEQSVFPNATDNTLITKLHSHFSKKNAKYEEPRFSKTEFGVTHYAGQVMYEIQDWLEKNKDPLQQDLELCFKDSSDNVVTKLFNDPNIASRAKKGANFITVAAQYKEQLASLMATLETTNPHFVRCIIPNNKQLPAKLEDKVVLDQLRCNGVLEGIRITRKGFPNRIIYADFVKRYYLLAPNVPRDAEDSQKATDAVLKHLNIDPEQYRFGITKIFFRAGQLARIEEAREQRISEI

The compound `Nc1ncnc2c1ncn2[C@@H]1O[C@H](COP(=O)(O)OP(=O)(O)O)[C@@H](O)[C@H]1O` [ADP] gave a dissociation constant Kd of 37.5 ± 7.3 µM.
